The values that follow come from patent publication US20070243215A1, “Adjuvant for Dna Vaccines” (priority 2004, published 2007).

This assay relates to N202/1A tumor cells. In words: Serum transfer and tumor cell challenge. Format: in vivo. The conditions noted are these: 150 μL pooled serum from treated donor mice; challenge 24 h later subcutaneously with 10^5 N202/1A tumor cells. As to the method:
Animals were treated as in Example 1 for each of the following groups: (1) Immunized with pCMV-ECD-TM, not treated with IRM (HER-2/neu); (2) Immunized with pCMV-ECD-TM, treated with IRM2 (IRM+HER-2/neu); or (3) untreated (Control). Two weeks after the immunization period was completed, sera were harvested from the animals and pooled among animals receiving the same treatment.
150 μL of pooled serum was injected into eight-week old animals (5 animals/treatment serum). Twenty-four hours after administration of the serum, each mouse was challenged with subcutaneously with 10^5 N202/1A tumor cells and monitored to register the development of tumors.

For the compound `CC(C)Cn1cnc2c(N)nc3ccccc3c21` [IRM2, 1-(2-methylpropyl)-1H-imidazo[4,5-c]quinolin-4-amine], the “percentage of recipient mice remaining tumor free (protection against tumor development)” value is “An even greater percentage”.
